The text below walks through data of publication PMC7311426, “An amphipathic peptide with antibiotic activity against multidrug-resistant Gram-negative bacteria” (Nature Communications, 2020).

Residues, ends and D or L forms follow the SMILES beside them. Where only a bound is given, the exact number is not on record here.

Data set [1] deals with E. coli ATCC 25922. As to the kind of experiment: NPN uptake assay, outer membrane permeabilization. To be noted: Prism nonlinear fit, One site - specific binding with Hill slope, Bmax = 100. Format: cell-based, Escherichia coli.
The subject of data set [2] is E. coli K12 MG1655. As to the kind of experiment: ATP release, BacTiter-Glo luminescence. To be noted: 60 min. In kind it is cell-based, Escherichia coli. As for the experimental part: ATP was measured using the BacTiter-Glo^TM Microbial Cell Viability Assay (Promega) following the manufacturer’s instructions. The assay was performed for three biological replicates at 37 °C, with luminescence recorded using a Tecan Infinite M1000 Pro plate reader. The fold reduction of ATP was calculated as: Fold reduction ATP = 1 − (Ltreat − Lmedia/Lcontrol − Lmedia); where Ltreat is the luminescence of treated cells, Lmedia is the luminescence of CAMHB without cells, and Lcontrol is the luminescence of untreated cells. Resultant graphs show mean (n = 7) and std error for each data point, prepared in Prism 8. DMSO was included as a control as piperacillin was solubilized in DMSO, with final assay concentration of 2.5%.

Data set [3] is described as follows: 7-day DRF inhalation toxicity. To be noted: for AUC(0-t) / Cmax: Mouse inhalation, TK dose 20 mg/kg.
The test system of data set [4] is human erythrocytes (HRBC). Format: cell-based.

As to `C[C@@H](O)[C@H]1C(=O)N2C(C(=O)O)=C(S[C@@H]3CN[C@H](C(=O)N(C)C)C3)[C@H](C)[C@H]12` [Meropenem, meropenem, reference compound], in data set [1], the “h (Hill slope, best-fit value)” value was found to be 0.3497.

Turning to colistin, the “Concentration at which maximum ATP release is reached” value in data set [2] was “at its MIC”.

Consider `CC(C)[C@@H]1NC(=O)[C@H](Cc2ccc(O)cc2)NC(=O)[C@H](Cc2c[nH]c3ccccc23)NC(=O)[C@@H](NC(=O)[C@H](Cc2ccccc2)NC(=O)CN)CSSC[C@@H](C(=O)N[C@@H](CC(N)=O)C(=O)O)NC(=O)[C@H](CCCNC(=N)N)NC(=O)[C@H](CCCNC(=N)N)NC(=O)[C@H](Cc2ccc(O)cc2)NC(=O)[C@@H]2CSSC[C@H](NC1=O)C(=O)N[C@@H](C)C(=O)N[C@@H](CCCNC(=N)N)C(=O)N[C@@H](CCCNC(=N)N)C(=O)N[C@@H](CC(N)=O)C(=O)NCC(=O)N[C@@H](C)C(=O)N[C@@H](CCCNC(=N)N)C(=O)N[C@@H](C(C)C)C(=O)N2` [AA139] (HELM PEPTIDE1{G.F.C.W.Y.V.C.A.R.R.N.G.A.R.V.C.Y.R.R.C.N}$PEPTIDE1,PEPTIDE1,3:R3-20:R3|PEPTIDE1,PEPTIDE1,7:R3-16:R3$$$V2.0), for which the AUC(0-t) (in general, exposure summed from dosing to a finite time, without extrapolation to infinity) turned out to be 39.8 µg·h/mL in data set [3] (Day 1 ELF); 137 µg·h/mL in data set [3] (Day 7 ELF); 2.6 µg·h/mL in data set [3] (mouse, plasma, inhaled or intranasal, 20 mg/kg, AUC 0-t, Day 1 Plasma); 1.4 µg·h/mL in data set [3] (mouse, plasma, inhaled or intranasal, 20 mg/kg, AUC 0-t, Day 7 Plasma). The Cmax (in general, the highest concentration seen after dosing) in data set [3] (Day 1 ELF) was 8.2 µg/mL; in data set [3] (Day 7 ELF), 42.4 µg/mL; in data set [3] (mouse, plasma, inhaled or intranasal, 20 mg/kg, Cmax, Day 1 Plasma), 0.95 µg/mL; in data set [3] (mouse, plasma, inhaled or intranasal, 20 mg/kg, Cmax, Day 7 Plasma), 0.47 µg/mL. Besides, the “NOAEL in mice, aerosol inhalation” value in data set [3] (aerosol inhalation over 7 days) is on record as 20 mg kg^−1 per day. In addition, the NOAEL (commonly the highest dose or exposure tested at which no adverse effect was seen) at 168 h in data set [3] (mouse, in vivo, inhaled or intranasal) amounted to 20 mg/kg. Besides, the “Heamolysis HC10, Mean” value in data set [4] was greater than 300 µg/mL. The “Heamolysis HC10” value in data set [4] (red cells of human, 3 h) was greater than 300 µg/mL.
